Measurements published in patent publication US10975093B2, “Fused 1,4-diazepines as BET protein degraders” (THE REGENTS OF THE UNIVERSITY OF MICHIGAN, priority 2016, dated 2021).

Experiments:
Assay type in all cases: cell-based
[1] = test system: RS4; 11; assay: Cell growth inhibition, CellTiter-Glo Luminescent Cell Viability Assay, RS4;11; conditions: Homo sapiens, 96 h, RS4;11 cells, 4 days incubation
Procedure: (§1) Cell growth inhibitory activity of representative Compounds of the Disclosure was determined in various cell lines using CellTiter-Glo® Luminescent Cell Viability Assay. Cells were seeded in 384-well white opaque cell culture plates at a density of 2,000 cells/well with serially diluted compounds and incubated at 37° C. in an atmosphere of 95% air and 5% CO2 for 4 days. Cell viability was determined using the CellTiter-Glo® Luminescent Cell Viability Assay Kit (Promega, Madison, Wis.) according to the manufacture's instruction. Briefly, a volume of CellTiter-Glo® Reagent equal to the volume of cell culture medium was added to each well, and then the plates were incubated at room temperature for 10-20 minutes. The luminescent signal was measured using a Tecan Infinite M1000 multimode microplate reader (Tecan, Morrisville, N.C.). The half maximal inhibitory concentration (IC50) was calculated using the GraphPad Prism 5 software (GraphPad Software, La Jolla, Calif.).

[2] = test system: MOLM-13; assay: Cell growth inhibition, CellTiter-Glo Luminescent Cell Viability Assay, MOLM-13; conditions: Homo sapiens, MOLM-13 cells, 4 days incubation
In short: (§2)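 IC50 values come from CellTiter-Glo ATP luminescence after a 4-day exposure to a compound dilution series. Seeding was 2,000 cells per well at 37° C under 5% CO2, with reagent read after 10-20 min at room temperature.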

[3] = test system: MDA-MB-231; assay: Cell growth inhibition, CellTiter-Glo Luminescent Cell Viability Assay, MDA-MB-231; conditions: Homo sapiens, MDA-MB-231 cells, 4 days incubation
In short: as §2

[4] = test system: MDA-MB-468; assay: Cell growth inhibition, CellTiter-Glo Luminescent Cell Viability Assay, MDA-MB-468; conditions: Homo sapiens, 96 h, MDA-MB-468 cells, 4 days incubation
Procedure: as §1

Row | SMILES | IC50 [1] [nM] | IC50 ([2]; 96 h) [nM] | IC50 ([3]; 96 h) [nM] | IC50 [4] [nM] | IC50 ([2]; MOLM-13, 96 h) [nM] | IC50 ([3]; MDA-MB-231, 96 h) [nM]
1 | Cc1c(C#Cc2ccc(CCCCOc3cccc4c3C(=O)N(C3CCC(=O)NC3=O)C4=O)cn2)sc2c1C(c1ccc(Cl)cc1)=N[C@@H](C)c1nnc(C)n1-2 (stereo partly drawn) [Cpd. No. 10, 4-(4-(6-(((S)-4-(4-chlorophenyl)-3,6,9-trimethyl-6H-thieno[3,2-f][1,2,4]triazolo[4,3-a][1,4]diazepin-2-yl)ethynyl)pyridin-3-yl)butoxy)-2-(2,6-dioxopiperidin-3-yl)isoindoline-1,3-dione] | 0.26 | 2.5 | 1.6 | 5.2 | – | –
2 | Cc1c(C#Cc2ccc(CCCCNc3cccc4c3CN(C3CCC(=O)NC3=O)C4=O)cn2)sc2c1C(c1ccc(Cl)cc1)=NCc1nnc(C)n1-2 (stereo not shown) [Cpd. No. 7, 3-(4-((4-(6-((4-(4-chlorophenyl)-3,9-dimethyl-6H-thieno[3,2-f][1,2,4]triazolo[4,3-a][1,4]diazepin-2-yl)ethynyl)pyridin-3-yl)butyl)amino)-1-oxoisoindolin-2-yl)piperidine-2,6-dione] | 0.81 | 4.2 | 6.08 | 10.7 | – | –
3 | Cc1c(C#Cc2cn(CCCCCc3cccc4c3CN(C3CCC(=O)NC3=O)C4=O)nn2)sc2c1C(c1ccc(Cl)cc1)=N[C@@H](C)c1nnc(C)n1-2 (stereo partly drawn) [Cpd. No. 4, 3-(4-(5-(4-(((S)-4-(4-chlorophenyl)-3,6,9-trimethyl-6H-thieno[3,2 f][1,2,4]triazolo[4,3-a][1,4]diazepin-2-yl)ethynyl)-1H-1,2,3-triazol-1-yl)pentyl)-1-oxoisoindolin-2-yl)piperidine-2,6-dione] | < 0.0015 | 0.3 | < 0.015 | < 0.015 | – | –
4 | Cc1c(C#Cc2cn(CCCC#Cc3cccc4c3CN(C3CCC(=O)NC3=O)C4=O)cn2)sc2c1C(c1ccc(Cl)cc1)=NCc1nnc(C)n1-2 (stereo not shown) [Cpd. No. 26, 3-(4-(5-(4-((4-(4-chlorophenyl)-3,9-dimethyl-6H-thieno[3,2-f][1,2,4]triazolo[4,3-a][1,4]diazepin-2-yl)ethynyl)-1H-imidazol-1-yl)pent-1-yn-1-yl)-1-oxoisoindolin-2-yl)piperidine-2,6-dione] | > 10 | 39.2 | > 100 | > 100 | – | –
5 | Cc1c(C#Cc2cnn(CCCCNc3cccc4c3C(=O)N(C3CCC(=O)NC3=O)C4=O)c2)sc2c1C(c1ccc(Cl)cc1)=NCc1nnc(C)n1-2 (stereo not shown) [Cpd. No. 21, 4-((4-(4-((4-(4-chlorophenyl)-3,9-dimethyl-6H-thieno[3,2-f][1,2,4]triazolo[4,3-a][1,4]diazepin-2-yl)ethynyl)-1H-pyrazol-1-yl)butyl)amino)-2-(2,6-dioxopiperidin-3-yl)isoindoline-1,3-dione] | 0.3 | – | – | 6.5 | 1.1 | 3.8
6 | Cc1c(C#Cc2cnn(CCCC#Cc3ccc(F)c4c3CN(C3CCC(=O)NC3=O)C4=O)c2)sc2c1C(c1ccc(Cl)cc1)=NCc1nnc(C)n1-2 (stereo not shown) [compound 142, 3-(4-(5-(4-((4-(4-chlorophenyl)-3,9-dimethyl-6H-thieno[3,2-f][1,2,4]triazolo[4,3-a][1,4]diazepin-2-yl)ethynyl)-1H-pyrazol-1-yl)pent-1-yn-1-yl)-7-fluoro-1-oxoisoindolin-2-yl)piperidine-2,6-dione] | 1 | – | – | 32.9 | 6.4 | 30.4
7 | Cc1c(C#Cc2cn(CCCC#Cc3cccc4c3C(=O)N(C3CCC(=O)NC3=O)C4=O)cn2)sc2c1C(c1ccc(Cl)cc1)=NCc1nnc(C)n1-2 (stereo not shown) [Cpd. No. 27, 4-(5-(4-((4-(4-chlorophenyl)-3,9-dimethyl-6H-thieno[3,2-f][1,2,4]triazolo[4,3-a][1,4]diazepin-2-yl)ethynyl)-1H-imidazol-1-yl)pent-1-yn-1-yl)-2-(2,6-dioxopiperidin-3-yl)isoindoline-1,3-dione] | > 10 | – | – | > 100 | 32 | > 100
8 | Cc1c(C#Cc2ccc(CCCCNc3cccc4c3CN(C3CCC(=O)NC3=O)C4=O)cn2)sc2c1C(c1ccc(Cl)cc1)=N[C@@H](C)c1nnc(C)n1-2 (stereo partly drawn) [Cpd. No. 8, 3-(4-((4-(6-(((S)-4-(4-chlorophenyl)-3,6,9-trimethyl-6H-thieno[3,2-f][1,2,4]triazolo[4,3-a][1,4]diazepin-2-yl)ethynyl)pyridin-3-yl)butyl)amino)-1-oxoisoindolin-2-yl)piperidine-2,6-dione] | 0.19 | 0.26 | 0.17 | 0.65 | – | –
9 | Cc1c(C#Cc2cnn(CCCC#Cc3cccc4c3C(=O)N(C3CCC(=O)NC3=O)C4=O)c2)sc2c1C(c1ccc(Cl)cc1)=NCc1nnc(C)n1-2 (stereo not shown) [Cpd. No. 25, 4-(5-(4-((4-(4-chlorophenyl)-3,9-dimethyl-6H-thieno[3,2-f][1,2,4]triazolo[4,3-a][1,4]diazepin-2-yl)ethynyl)-1H-pyrazol-1-yl)pent-1-yn-1-yl)-2-(2,6-dioxopiperidin-3-yl)isoindoline-1,3-dione] | 1 | – | – | 34.9 | 9.1 | 24.2
10 | Cc1c(C#Cc2cn(CCCC#Cc3cccc4c3CN(C3CCC(=O)NC3=O)C4=O)nn2)sc2c1C(c1ccc(Cl)cc1)=N[C@@H](C)c1nnc(C)n1-2 (stereo partly drawn) [Cpd. No. 2, 3-(4-(5-(4-(((S)-4-(4-chlorophenyl)-3,6,9-trimethyl-6H-thieno[3,2-f][1,2,4]triazolo[4,3-a][1,4]diazepin-2-yl)ethynyl)-1H-1,2,3-triazol-1-yl)pent-1-yn-1-yl)-1-oxoisoindolin-2-yl)piperidine-2,6-dione] | < 0.0015 | 0.4 | 0.19 | 0.27 | – | –
11 | Cc1c(C#Cc2cnn(CCCCNc3cccc4c3C(=O)N(C3CCC(=O)NC3=O)C4=O)c2)sc2c1C(c1ccc(Cl)cc1)=N[C@@H](C)c1nnc(C)n1-2 (stereo partly drawn) [Cpd. No. 22, 4-((4-(4-(((S)-4-(4-chlorophenyl)-3,6,9-trimethyl-6H-thieno[3,2-f][1,2,4]triazolo[4,3-a][1,4]diazepin-2-yl)ethynyl)-1H-pyrazol-1-yl)butyl)amino)-2-(2,6-dioxopiperidin-3-yl)isoindoline-1,3-dione] | 0.2 | – | – | 1.8 | 0.9 | 0.9
12 | Cc1c(C#Cc2cnn(CCCCCc3cccc4c3CN(C3CCC(=O)NC3=O)C4=O)c2)sc2c1C(c1ccc(Cl)cc1)=N[C@@H](C)c1nnc(C)n1-2 (stereo partly drawn) [Cpd. No. 24, 3-(4-(5-(4-(((S)-4-(4-chlorophenyl)-3,6,9-trimethyl-6H-thieno[3,2-f][1,2,4]triazolo[4,3-a][1,4]diazepin-2-yl)ethynyl)-1H-pyrazol-1-yl)pentyl)-1-oxoisoindolin-2-yl)piperidine-2,6-dione] | < 0.015 | – | – | < 0.015 | < 0.015 | < 0.015
13 | Cc1c(C#Cc2cn(CCCCNc3cccc4c3CN(C3CCC(=O)NC3=O)C4=O)nn2)sc2c1C(c1ccc(Cl)cc1)=N[C@@H](C)c1nnc(C)n1-2 (stereo partly drawn) [Cpd. No. 6, 3-(4-((4-(4-(((S)-4-(4-chlorophenyl)-3,6,9-trimethyl-6H-thieno[3,2-f][1,2,4]triazolo[4,3-a][1,4]diazepin-2-yl)ethynyl)-1H-1,2,3-triazol-1-yl)butyl)amino)-1-oxoisoindolin-2-yl)piperidine-2,6-dione] | < 0.0015 | 0.77 | 2.3 | 1.7 | – | –
